Data from the supplement of paper PMC10307832.

Key:
[1] = compound: Cc1cnc(CNC(=O)c2c(=O)c3ccc(N4CCCN(C)CC4)nc3n3c2sc2ccccc23)cn1 [CX-5461] + COc1cc2c(Oc3ccc(NC(=O)C4(C(=O)Nc5ccc(F)cc5)CC4)cc3F)ccnc2cc1OCCCN1CCOCC1 [Foretinib] (partner 0.25 µM); test: relative viability (nuclei count vs DMSO), 5 days (fraction); higher = more cells survive
In short: (§1)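 Lung cancer cell lines, seeded in 1536-well plates, were treated the following day by pin tool with a single drug or with five library-drug doses (not always all listed) in √10 steps on top of a fixed anchor-drug dose. Cells were fixed and nuclei stained in one step after 5 days, and nuclei were counted. Relative viability is the nuclei count for treated wells divided by that for vehicle wells, reported as medians of duplicate plates.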

[2] = compound: O=C(Nc1cc(C(F)(F)F)cc(C(F)(F)F)c1)c1cc(Cl)ccc1O [IMD-0354] + Cc1cc(Nc2cc(N3CCN(C)CC3)nc(Sc3ccc(NC(=O)C4CC4)cc3)n2)n[nH]1 [Tozasertib] (partner 0.1 µM); test: as above
In short: as §1

Row | Cell Line | relative viability ([1]; first compound 0.01 µM) | relative viability ([1]; first compound 0.03162 µM) | relative viability ([1]; first compound 0.1 µM) | relative viability ([1]; first compound 0.3162 µM) | relative viability ([1]; first compound 1 µM) | relative viability ([2]; first compound 0.04 µM) | relative viability ([2]; first compound 0.1265 µM) | relative viability ([2]; first compound 0.4 µM) | relative viability ([2]; first compound 1.265 µM) | relative viability ([2]; first compound 4 µM)
1 | NCI-H1975 | 0.971 | 0.896 | 1.03 | 0.981 | 0.521 | 0.814 | 0.864 | 0.399 | 0.111 | 0.148
2 | CAL-12T | 1.03 | 1.08 | 0.966 | 0.945 | 0.741 | 0.399 | 0.307 | 0.242 | 0.278 | 0.111
3 | NCI-H1623 | 0.971 | 0.871 | 0.809 | 0.934 | 0.723 | 0.484 | 0.444 | 0.398 | 0.342 | 0.277
4 | HCC-44 |  |  |  |  |  | 0.955 | 0.899 | 0.706 | 0.351 | 0.17
5 | EKVX | 0.971 | 0.726 | 0.698 | 0.821 | 1.03 | 0.382 | 0.397 | 0.269 | 0.456 | 0.149
6 | NCI-H1651 | 0.734 | 0.55 |  | 0.598 | 0.168 | 0.662 | 0.658 | 0.317 | 0.363 | 0.0982
7 | NCI-H2170 | 0.964 | 1.01 | 0.944 | 1.07 | 1 | 0.788 | 0.779 | 0.377 | 0.624 | 0.226
8 | NCI-H1703 | 0.359 | 0.311 | 0.357 | 0.363 | 0.28 |  |  |  |  | 
9 | Calu-6 | 0.837 | 0.925 | 0.807 | 0.844 | 0.698 |  |  |  |  | 
10 | EBC-1 | 0.108 | 0.085 | 0.11 | 0.112 | 0.0969 |  |  |  |  | 
11 | A-427 | 1.12 | 1.2 | 1.13 |  | 1.04 | 0.204 | 0.211 | 0.232 | 0.137 | 0.148
12 | NCI-H2347 | 0.994 | 1.11 | 0.947 | 0.842 | 0.849 | 0.767 | 0.513 | 0.563 | 0.505 | 0.233
13 | NCI-H1355 | 1.03 | 1.01 | 1.01 | 0.943 | 0.95 | 0.598 | 0.528 | 0.594 | 0.271 | 0.258
14 | SK-MES-1 | 1.05 | 1.05 | 1.04 | 1.08 | 0.838 | 1.14 | 0.873 | 0.543 | 0.287 | 0.215
15 | PC-3 [JPC-3] | 1.07 | 1.06 | 0.984 | 0.986 | 1.01 | 1 | 0.707 | 0.572 | 0.567 | 0.312
16 | NCI-H2228 | 0.691 | 1.03 | 0.763 | 0.747 | 0.13 | 0.181 | 0.256 | 0.275 | 0.185 | 0.175
17 | HOP-62 | 1.09 | 1.14 | 1.08 | 1.01 | 1.04 | 0.46 | 0.374 | 0.263 | 0.228 | 0.108
18 | HARA | 1.01 | 1.09 | 0.806 |  | 0.89 | 0.102 | 0.132 | 0.105 | 0.0599 | 0.0875

Row | Cell Line | relative viability ([1]; first compound 0.01 µM) | relative viability ([1]; first compound 0.03162 µM) | relative viability ([1]; first compound 0.1 µM) | relative viability ([1]; first compound 0.3162 µM) | relative viability ([1]; first compound 1 µM) | relative viability ([2]; first compound 0.04 µM) | relative viability ([2]; first compound 0.1265 µM) | relative viability ([2]; first compound 0.4 µM) | relative viability ([2]; first compound 1.265 µM) | relative viability ([2]; first compound 4 µM)
19 | NCI-H838 | 1.11 | 1.1 | 1.16 |  | 0.931 | 0.299 | 0.286 | 0.2 | 0.191 | 0.172
20 | NCI-H1755 | 0.934 | 0.905 | 0.889 | 0.913 | 0.898 | 0.566 | 0.627 | 0.435 | 0.407 | 0.294
21 | HCC-78 | 0.596 | 0.503 | 0.573 | 0.602 | 0.589 | 0.467 | 0.598 | 0.3 | 0.368 | 0.231
22 | IA-LM | 1.21 | 1.12 | 1.14 | 1.07 | 0.885 |  |  |  |  | 
23 | NCI-H322M | 0.834 | 0.995 | 0.937 | 0.394 | 0.7 | 0.469 | 0.471 | 0.387 | 0.289 | 0.359
24 | NCI-H3122 | 0.915 | 0.906 | 0.941 | 0.929 | 0.974 | 0.468 | 0.421 | 0.248 | 0.139 | 0.119
25 | SK-LU-1 | 0.818 | 0.857 | 0.736 |  | 0.326 | 0.308 | 0.349 | 0.304 | 0.2 | 0.189
26 | COR-L23 | 0.997 | 1.09 | 0.881 | 0.774 | 0.597 | 0.197 | 0.159 | 0.175 | 0.0719 | 0.101
27 | NCI-H2087 | 1.17 | 1.43 | 1.01 | 1.14 | 0.787 | 0.273 | 0.228 | 0.167 | 0.167 | 0.126
28 | LC-2-ad | 0.919 | 1.01 | 0.835 | 0.88 | 0.504 | 0.484 | 0.528 | 0.377 | 0.243 | 0.257
29 | NCI-H1915 | 1.14 | 1.07 | 1.09 | 1.08 | 1.05 | 0.482 | 0.412 | 0.299 | 0.268 | 0.175
30 | NCI-H1944 | 0.849 | 0.913 | 0.897 | 0.47 | 0.822 | 0.252 | 0.245 | 0.206 | 0.208 | 0.131
31 | NCI-H2023 | 0.954 | 0.71 | 0.733 | 0.552 | 0.108 | 0.338 | 0.296 | 0.23 | 0.126 | 0.117
32 | COR-L 105 | 1.13 | 1.05 | 1.11 | 0.813 | 0.549 | 0.379 | 0.311 | 0.394 | 0.341 | 0.207
33 | RERF-LC-KJ | 0.893 | 0.964 | 0.998 | 0.765 | 0.815 | 0.565 | 0.644 | 0.411 | 0.274 | 0.265
34 | LXF-289 | 0.998 | 1.02 | 0.974 | 0.402 | 0.902 | 0.229 | 0.235 | 0.154 | 0.0929 | 0.053
35 | PC-14 | 1 | 1.04 | 1.04 | 0.962 | 0.887 | 0.675 | 0.61 | 0.353 | 0.312 | 0.076
